What was measured:
HIV (HTLV-III) = experiment: HIV-cytopathic Effect Inhibition Assay; format: cell-based; conditions: survival of drug treated target cells with HIV (HTLV-III), seven days; FIGS. 1 to 3
Procedure: Compounds I and II were tested in the HIV-cytopathic Effect Inhibition Assay as described in the publication by Mitsuya, et al. Proc. Nat'l Acad. Sci., USA, 83:1911 (1986), which publication is hereby incorporated by reference.
The cells were exposed to either Compound I, Compound II, or AZT, and the survival of drug treated target cells determined seven days thereafter.
The black bars represent survival of compound treated target cells when HIV (HTLV-III) is added. The light bars represent survival of compound treated target cells in the absence of virus.

HIV, HTLV III; RF strain = experiment: HIV antigen capture ELISA, virus growth in CD4+ T-lymphocytes; format: cell-based; conditions: C8166 CD4+ T-cell line; for IC50: Human immunodeficiency virus 1, T-lymphocyte, supernatant antigen at 72 hours post-infection
Procedure: The Enzyme Linked Immuno-absorbent Assay (ELISA) was used to test compounds I and II for anti-HIV activity by measuring virus growth in CD4^+ T-lymphocytes by detecting antigen released into the tissue culture supernatant of infected cells.
High titre virus stocks [HIV, HTLV III; RF strain] were grown in H9 cells in RPMI 1640 (Flow Laboratories) supplemented with 10% fetal calf serum, penicillin (100 IU/ml) and streptomycin (100 ug/ml). Cell debris was removed by low speed centrifugation and the supernatant stored at -70° C. until required. The host cell line used in the antiviral assays was the C8166 CD4^+ T-cell line which is particularly susceptible to infection with HIV. Cells were incubated with 10 TCID50, HIV/HTLV III(RF) at 37° C. for 90 minutes and then washed three times with PBSA. Cell aliquots (2×10^5) were resuspended in 1.5 ml growth medium in 6 ml tubes and incubated at 37° C. At 72 hours post-infection, the supernatants from the cell cultures were assayed immediately for HIV antigen.
The antigen capture ELISA used was purchased from Coulter (Luton, UK). The assays were carried out on supernatants taken from infected cell cultures using the steps described by the manufacturers. In each assay the corresponding positive and negative internal controls were included together with a supernatant control taken from uninfected cells. The plates were read using the appropriate spectrophotometric detection system.

IC50 (HIV, HTLV III; RF strain) [nM]	SMILES	anti-HIV activity relative to known antiretroviral therapeutics (AZT) (HIV (HTLV-III))	antiviral activity in this test system, compared to ddA (HIV, HTLV III; RF strain; antigen ELISA)
3000 to 10000	Nc1ncnc2c1ncn2[C@H]1CO[C@@H](CO)C1 [Compound I, (2R-cis)-4-(6-Amino-9H-purin-9-yl)tetrahydro-2-furanmethanol]	equivalent to that of antiretroviral therapeutics known to have in vivo activity against HIV, most particularly AZT	comparable to that of a known anti-HIV agent ddA
–	Nc1nc2c(ncn2[C@H]2CO[C@@H](CO)C2)c(=O)[nH]1 [Compound II]	equivalent to that of antiretroviral therapeutics known to have in vivo activity against HIV, most particularly AZT	–
1000 to 3000	Nc1ncnc2c1ncn2[C@H]1CC[C@@H](CO)O1 [ddA, 2',3'-dideoxyadenosine, reference compound]	–	–
